From ChEMBL document CHEMBL3044763, “Inhibitory Activities of Rhodanine Derivatives on Plant Growth” (Biosci Biotechnol Biochem, 1996)

Tests used:
[1] = tested on: Brassica rapa subsp. oleifera; assay: Growth inhibition of Brassica rapa subsp. oleifera assessed as chlorophyll b level at 3 x 10^-4 M after 7 days; assay type: functional; design: scale not given: the % may be the effect or the level left
[2] = tested on: Brassica rapa subsp. oleifera; assay: Growth inhibition of Brassica rapa subsp. oleifera assessed as chlorophyll b level at 1 x 10^-4 M after 7 days; assay type: functional; design: scale not given: the % may be the effect or the level left
[3] = tested on: Brassica rapa subsp. oleifera; assay: Growth inhibition of Brassica rapa subsp. oleifera assessed as chlorophyll a level at 3 x 10^-5 M after 7 days; assay type: functional; design: scale not given: the % may be the effect or the level left
[4] = Toxicity in ip dosed Mus musculus ddY (mouse) assessed as mortality after 1 to 7 days; assay type: organism-based; settings: in vivo
[5] = Toxicity in Mus musculus ddY (mouse) assessed as mortality at 3 mg/kg, ip after 7 days; assay type: organism-based; design: dose 3 mg/kg, route intraperitoneal; settings: in vivo
[6] = Toxicity in Mus musculus ddY (mouse) assessed as mortality at 5 mg/kg, ip after 7 days; assay type: organism-based; design: dose 5 mg/kg, route intraperitoneal; settings: in vivo
[7] = Toxicity in Mus musculus ddY (mouse) assessed as mortality at 4 mg/kg, ip after 7 days; assay type: organism-based; design: dose 4 mg/kg, route intraperitoneal; settings: in vivo
[8] = Toxicity in Mus musculus ddY (mouse) assessed as mortality at 6 mg/kg, ip after 7 days; assay type: organism-based; design: dose 6 mg/kg, route intraperitoneal; settings: in vivo
[9] = Toxicity in Mus musculus ddY (mouse) assessed as mortality at 7 mg/kg, ip after 7 days; assay type: organism-based; design: dose 7 mg/kg, route intraperitoneal; settings: in vivo
[10] = tested on: Brassica rapa subsp. oleifera; assay: Growth inhibition of Brassica rapa subsp. oleifera assessed as total chlorophyll level at 3 x 10^-5 M after 7 days; assay type: functional; design: scale not given: the % may be the effect or the level left
[11] = tested on: Brassica rapa subsp. oleifera; assay: Growth inhibition of Brassica rapa subsp. oleifera assessed as total chlorophyll level at 3 x 10^-4 M after 7 days; assay type: functional; design: scale not given: the % may be the effect or the level left
Allium tuberosum [12] = assay: Growth inhibition of Allium tuberosum assessed as root growth at 3 x 10^-5 M after 10 days; assay type: functional
Allium tuberosum [13] = assay: Growth inhibition of Allium tuberosum assessed as root growth at 1 x 10^-4 M after 10 days; assay type: functional
Allium tuberosum [14] = assay: Growth inhibition of Allium tuberosum assessed as root growth at 3 x 10^-4 M after 10 days; assay type: functional
Echinochloa esculenta [15] = assay: Growth inhibition of Echinochloa esculenta assessed as root growth at 1 x 10^-4 M after 7 days; assay type: functional
Echinochloa esculenta [16] = assay: Growth inhibition of Echinochloa esculenta assessed as root growth at 3 x 10^-4 M after 7 days; assay type: functional
[17] = tested on: Brassica rapa subsp. oleifera; assay: Growth inhibition of Brassica rapa subsp. oleifera assessed as root growth at 5 x 10^-5 M after 7 days; assay type: functional
[18] = tested on: Brassica rapa subsp. oleifera; assay: Growth inhibition of Brassica rapa subsp. oleifera assessed as root growth at 1 x 10^-4 M after 7 days; assay type: functional
[19] = tested on: Brassica rapa subsp. oleifera; assay: Growth inhibition of Brassica rapa subsp. oleifera assessed as root growth at 3 x 10^-4 M after 7 days; assay type: functional
Lactuca sativa [20] = assay: Growth inhibition of Lactuca sativa (lettuce) assessed as root growth at 5 x 10^-5 M after 7 days; assay type: functional
Lactuca sativa [21] = assay: Growth inhibition of Lactuca sativa (lettuce) assessed as root growth at 3 x 10^-4 M after 7 days; assay type: functional
Daucus carota [22] = assay: Growth inhibition of Daucus carota (carrot) assessed as root growth at 3 x 10^-5 M after 7 days; assay type: functional
Daucus carota [23] = assay: Growth inhibition of Daucus carota (carrot) assessed as root growth at 1 x 10^-4 M after 7 days; assay type: functional
Sesamum indicum [24] = assay: Growth inhibition of Sesamum indicum (sesame) assessed as root growth at 3 x 10^-5 M after 7 days; assay type: functional
Sesamum indicum [25] = assay: Growth inhibition of Sesamum indicum (sesame) assessed as root growth at 3 x 10^-4 M after 7 days; assay type: functional
Sesamum indicum [26] = assay: Growth inhibition of Sesamum indicum (sesame) assessed as root growth at 1 x 10^-4 M after 7 days; assay type: functional
[27] = Toxicity in Mus musculus ddY (mouse) assessed as mortality at 4 mg/kg, ip after 3 days; assay type: organism-based; design: dose 4 mg/kg, route intraperitoneal; settings: in vivo
[28] = Toxicity in Mus musculus ddY (mouse) assessed as mortality at 3 mg/kg, ip after 3 days; assay type: organism-based; design: dose 3 mg/kg, route intraperitoneal; settings: in vivo
[29] = Toxicity in Mus musculus ddY (mouse) assessed as mortality at 5 mg/kg, ip after 3 days; assay type: organism-based; design: dose 5 mg/kg, route intraperitoneal; settings: in vivo
[30] = Toxicity in Mus musculus ddY (mouse) assessed as mortality at 3 mg/kg, ip after 2 days; assay type: organism-based; design: dose 3 mg/kg, route intraperitoneal; settings: in vivo
[31] = Toxicity in Mus musculus ddY (mouse) assessed as mortality at 5 mg/kg, ip after 2 days; assay type: organism-based; design: dose 5 mg/kg, route intraperitoneal; settings: in vivo
[32] = Toxicity in Mus musculus ddY (mouse) assessed as mortality at 4 mg/kg, ip after 2 days; assay type: organism-based; design: dose 4 mg/kg, route intraperitoneal; settings: in vivo
[33] = Toxicity in Mus musculus ddY (mouse) assessed as mortality at 7 mg/kg, ip after 2 days; assay type: organism-based; design: dose 7 mg/kg, route intraperitoneal; settings: in vivo
[34] = Toxicity in Mus musculus ddY (mouse) assessed as mortality at 3 mg/kg, ip after 1 day; assay type: organism-based; design: dose 3 mg/kg, route intraperitoneal; settings: in vivo
[35] = Toxicity in Mus musculus ddY (mouse) assessed as mortality at 6 mg/kg, ip after 1 day; assay type: organism-based; design: dose 6 mg/kg, route intraperitoneal; settings: in vivo
[36] = Toxicity in Mus musculus ddY (mouse) assessed as mortality at 5 mg/kg, ip after 1 day; assay type: organism-based; design: dose 5 mg/kg, route intraperitoneal; settings: in vivo
[37] = Toxicity in Mus musculus ddY (mouse) assessed as mortality at 8 mg/kg, ip after 1 day; assay type: organism-based; design: dose 8 mg/kg, route intraperitoneal; settings: in vivo
[38] = tested on: Brassica rapa subsp. oleifera; assay: Growth inhibition of Brassica rapa subsp. oleifera assessed as chlorophyll b level at 3 x 10^-5 M after 7 days; assay type: functional; design: scale not given: the % may be the effect or the level left
[39] = tested on: Brassica rapa subsp. oleifera; assay: Growth inhibition of Brassica rapa subsp. oleifera assessed as chlorophyll a level at 3 x 10^-4 M after 7 days; assay type: functional; design: scale not given: the % may be the effect or the level left
[40] = Toxicity in Mus musculus ddY (mouse) assessed as mortality at 6 mg/kg, ip after 4 days; assay type: organism-based; design: dose 6 mg/kg, route intraperitoneal; settings: in vivo
[41] = Toxicity in Mus musculus ddY (mouse) assessed as mortality at 5 mg/kg, ip after 4 days; assay type: organism-based; design: dose 5 mg/kg, route intraperitoneal; settings: in vivo
[42] = Toxicity in Mus musculus ddY (mouse) assessed as mortality at 8 mg/kg, ip after 4 days; assay type: organism-based; design: dose 8 mg/kg, route intraperitoneal; settings: in vivo
[43] = Toxicity in Mus musculus ddY (mouse) assessed as mortality at 4 mg/kg, ip after 6 days; assay type: organism-based; design: dose 4 mg/kg, route intraperitoneal; settings: in vivo
[44] = Toxicity in Mus musculus ddY (mouse) assessed as mortality at 3 mg/kg, ip after 6 days; assay type: organism-based; design: dose 3 mg/kg, route intraperitoneal; settings: in vivo
[45] = Toxicity in Mus musculus ddY (mouse) assessed as mortality at 6 mg/kg, ip after 6 days; assay type: organism-based; design: dose 6 mg/kg, route intraperitoneal; settings: in vivo
[46] = Toxicity in Mus musculus ddY (mouse) assessed as mortality at 8 mg/kg, ip after 6 days; assay type: organism-based; design: dose 8 mg/kg, route intraperitoneal; settings: in vivo
[47] = Toxicity in Mus musculus ddY (mouse) assessed as mortality at 4 mg/kg, ip after 5 days; assay type: organism-based; design: dose 4 mg/kg, route intraperitoneal; settings: in vivo
[48] = Toxicity in Mus musculus ddY (mouse) assessed as mortality at 3 mg/kg, ip after 5 days; assay type: organism-based; design: dose 3 mg/kg, route intraperitoneal; settings: in vivo
[49] = Toxicity in Mus musculus ddY (mouse) assessed as mortality at 6 mg/kg, ip after 5 days; assay type: organism-based; design: dose 6 mg/kg, route intraperitoneal; settings: in vivo
[50] = Toxicity in Mus musculus ddY (mouse) assessed as mortality at 5 mg/kg, ip after 5 days; assay type: organism-based; design: dose 5 mg/kg, route intraperitoneal; settings: in vivo
[51] = Toxicity in Mus musculus ddY (mouse) assessed as mortality at 7 mg/kg, ip after 5 days; assay type: organism-based; design: dose 7 mg/kg, route intraperitoneal; settings: in vivo
[52] = Toxicity in Mus musculus ddY (mouse) assessed as mortality at 7 mg/kg, ip after 4 days; assay type: organism-based; design: dose 7 mg/kg, route intraperitoneal; settings: in vivo

Structure (SMILES): NN1C(=O)CSC1=S [AMINORHODANINE]
- Activity [1]: 3.4%
- Activity [2]: 3.82%
- Activity [3]: 11.07%
- LD50 [4]: 5.07 mg/kg
- mortality at 168 h [5]: 0%
- mortality at 168 h [6]: 60%
- mortality at 168 h [7]: 20%
- mortality at 168 h [8]: 60%
- mortality at 168 h [9]: 80%
- Activity [10]: 15.83%
- Activity [11]: 11.16%
- Activity (Allium tuberosum [12]): 7 mm
- Activity (Allium tuberosum [13]): 5.1 mm
- Activity (Allium tuberosum [14]): 1.4 mm
- Activity (Echinochloa esculenta [15]): 10.8 mm
- Activity (Echinochloa esculenta [16]): 3.1 mm
- Root length [17]: 26.8 mm
- Activity [18]: 14.1 mm
- Activity [19]: 3.5 mm
- Activity (Lactuca sativa [20]): 5.9 mm
- Activity (Lactuca sativa [21]): 0 mm
- Activity (Daucus carota [22]): 11.2 mm
- Activity (Daucus carota [23]): 2.4 mm
- Activity (Sesamum indicum [24]): 9.5 mm
- Activity (Sesamum indicum [25]): 0 mm
- Activity (Sesamum indicum [26]): 3.2 mm
- mortality at 72 h [27]: 20%
- mortality at 72 h [28]: 0%
- mortality at 72 h [29]: 60%
- mortality at 48 h [30]: 0%
- mortality at 48 h [31]: 60%
- mortality at 48 h [32]: 20%
- mortality at 48 h [33]: 80%
- mortality at 24 h [34]: 0%
- mortality at 24 h [35]: 60%
- mortality at 24 h [36]: 60%
- mortality at 24 h [37]: 100%
- Activity [38]: 4.78%
- Activity [39]: 7.76%
- mortality at 96 h [40]: 60%
- mortality at 96 h [41]: 60%
- mortality at 96 h [42]: 100%
- mortality at 144 h [43]: 20%
- mortality at 144 h [44]: 0%
- mortality at 144 h [45]: 60%
- mortality at 144 h [46]: 100%
- mortality at 120 h [47]: 20%
- mortality at 120 h [48]: 0%
- mortality at 120 h [49]: 60%
- mortality at 120 h [50]: 60%
- mortality at 120 h [51]: 80%
- mortality at 96 h [52]: 80%
